The values that follow come from patent publication US20250025443A1, “COMPOUNDS AND METHODS FOR TREATING CORONA VIRUSES” (CLEAR CREEK BIO, INC., priority 2021, published 2025).

Where two headings read alike, the source gives them in different places.

The assay has as its target SARS-CoV-2 Papain-Like Protease (PLpro) (Severe acute respiratory syndrome coronavirus 2 (2019-nCoV) (SARS-CoV-2), UniProt P0DTD1). Nature of the assay: biochemical. Particulars: read-out: PLpro IC50.
The mark [1] stands for this setting: PLpro enzymatic fluorescence assay, class symbols.
Where [2] appears, read: SARS-CoV-2 PLpro enzymatic fluorescence assay.

On to `C#Cc1cc(C2(NC(=O)c3cc(OC[C@@H]4CCN4)ccc3C)CC2)c2cccnc2c1` [Compound 697, (S)-5-(Azetidin-2-ylmethoxy)-N-(1-(7-ethynylquinolin-5-yl)cyclopropyl)-2-methylbenzamide], for which the IC50 (in general, the concentration at which inhibition is half-maximal) under setting [1] was under 100 nM.
On the same count and under the same terms, under `Cc1ncc(-c2cc(C3(NC(=O)c4cc(OC[C@@H]5CCN5)ccc4C)CC3)c3cccnc3c2)o1` [Compound 698, (S)-5-(Azetidin-2-ylmethoxy)-2-methyl-N-(1-(7-(2-methyloxazol-5-yl)quinolin-5-yl)cyclopropyl)benzamide] stands under 100 nM; under `Cc1ccc(OC[C@@H]2CCN2C)cc1C(=O)NC1(c2cc(-c3cncc(N4CCOCC4)c3)cc3ncccc23)CC1` [Compound 699, (S)-2-Methyl-5-((1-methylazetidin-2-yl)methoxy)-N-(1-(7-(5-morpholinopyridin-3-yl)quinolin-5-yl)cyclopropyl)benzamide], under 100 nM; under `Cc1ccc(OC[C@@H]2CCN2C)cc1C(=O)NC1(c2cc(-c3ccc4ncnn4c3)cc3ncccc23)CC1` [Compound 700, (S)—N-(1-(7-([1,2,4]Triazolo[1,5-a]pyridin-6-yl)quinolin-5-yl)cyclopropyl)-2-methyl-5-((1-methylazetidin-2-yl)methoxy)benzamide], under 100 nM.
Consider `Cc1ccc(OC[C@@H]2CCN2C)cc1C(=O)NC1(c2cc(-c3cnc(N4CCCCC4)nc3)cc3ncccc23)CC1` [Compound 701, (S)-2-Methyl-5-((1-methylazetidin-2-yl)methoxy)-N-(1-(7-(2-(piperidin-1-yl)pyrimidin-5-yl)quinolin-5-yl)cyclopropyl)benzamide], for which the IC50 under setting [1] was under 100 nM.
The same measure, in the same setting: to `Cc1ccc(OC[C@@H]2CCN2C)cc1C(=O)NC1(c2cc(-c3ccc4nccn4c3)cc3ncccc23)CC1` [Compound 702, (S)—N-(1-(7-(Imidazo[1,2-a]pyridin-6-yl)quinolin-5-yl)cyclopropyl)-2-methyl-5-((1-methylazetidin-2-yl)methoxy)benzamide] belongs under 100 nM.
The same measure, in the same setting: to `Cc1cccc(/C=C/c2cc(C3(NC(=O)c4cc(OC[C@@H]5CCN5)ccc4C)CC3)c3cccnc3c2)c1` [Compound 704, (S,E)-5-(Azetidin-2-ylmethoxy)-2-methyl-N-(1-(7-(3-methylstyryl)quinolin-5-yl)cyclopropyl)benzamide] belongs under 100 nM.
Take `Cc1ccc(OC[C@@H]2CCN2)cc1C(=O)NC1(c2cc(-c3nc4ccccc4o3)cc3ncccc23)CC1` [Compound 711, (S)-5-(Azetidin-2-ylmethoxy)-N-(1-(7-(benzo[d]oxazol-2-yl)quinolin-5-yl)cyclopropyl)-2-methylbenzamide]: the half-maximal inhibitory concentration (IC50) under setting [1] is under 100 nM.
Turning to `C=Cc1cc(C2(NC(=O)c3cc(OC[C@@H]4CCCN4)ccc3C)CC2)c2cccnc2c1` [Compound 713, (S)-2-Methyl-5-(pyrrolidin-2-ylmethoxy)-N-(1-(7-vinylquinolin-5-yl)cyclopropyl)benzamide], the IC50 under setting [2] was under 100 nM.
As for `Cc1ccc(OC[C@@H]2CCN2)cc1C(=O)NC1(c2cc(-c3cnoc3)cc3ncccc23)CC1` [Compound 714, (S)-5-(Azetidin-2-ylmethoxy)-N-(1-(7-(isoxazol-4-yl)quinolin-5-yl)cyclopropyl)-2-methylbenzamide], the IC50 under setting [1] is under 100 nM.
The same measure, in the same setting: to `C=C(C)c1cc(C2(NC(=O)c3cc(OC[C@@H]4CCCN4)ccc3C)CC2)c2cccnc2c1` [Compound 715, (S)-2-Methyl-N-(1-(7-(prop-1-en-2-yl)quinolin-5-yl)cyclopropyl)-5-(pyrrolidin-2-ylmethoxy)benzamide] belongs under 100 nM.
On the same count and under the same terms, under `Cc1ncc(-c2cc(C3(NC(=O)c4cc(OC[C@@H]5CCN5C)ccc4C)CC3)c3cccnc3c2)o1` [Compound 716, (S)-2-Methyl-5-((1-methylazetidin-2-yl)methoxy)-N-(1-(7-(2-methyloxazol-5-yl)quinolin-5-yl)cyclopropyl)benzamide] stands under 100 nM; under `C=Cc1cc(C2(NC(=O)c3cc(OC[C@@H]4CCCN4C)ccc3C)CC2)c2cccnc2c1` [Compound 717, (S)-2-Methyl-5-((1-methylpyrrolidin-2-yl)methoxy)-N-(1-(7-vinylquinolin-5-yl)cyclopropyl)benzamide], under 100 nM.
The same measure, in the same setting: under `Cc1ccc(OC[C@@H]2CCN2C)cc1C(=O)NC1(c2cc(-c3nc4ccccc4o3)cc3ncccc23)CC1` [Compound 718, (S)—N-(1-(7-(Benzo[d]oxazol-2-yl)quinolin-5-yl)cyclopropyl)-2-methyl-5-((1-methylazetidin-2-yl)methoxy)benzamide] stands under 100 nM.
As to `C=C(C)c1cc(C2(NC(=O)c3cc(OC[C@@H]4CCCN4C)ccc3C)CC2)c2cccnc2c1` [Compound 719, (S)-2-Methyl-5-((1-methylpyrrolidin-2-yl)methoxy)-N-(1-(7-(prop-1-en-2-yl)quinolin-5-yl)cyclopropyl)benzamide], the 50% inhibitory concentration (IC50) under setting [1] was under 100 nM.
Same read-out and setting: under `CC#Cc1cc(C2(NC(=O)c3cc(OC[C@@H]4CCN4C)ccc3C)CC2)c2cccnc2c1` [Compound 721, (S)-2-Methyl-5-((1-methylazetidin-2-yl)methoxy)-N-(1-(7-(prop-1-yn-1-yl)quinolin-5-yl)cyclopropyl)benzamide] stands under 100 nM; under `Cc1ccc(OC[C@@H]2CCN2)cc1C(=O)NC1(c2cc(N3CCC3)cc3ncccc23)CC1` [Compound 722, (S)—N-(1-(7-(Azetidin-1-yl)quinolin-5-yl)cyclopropyl)-5-(azetidin-2-ylmethoxy)-2-methylbenzamide], under 100 nM; under `Cc1ccc(OC[C@@H]2CCN2C)cc1C(=O)NC1(c2cc(N3CCC3)cc3ncccc23)CC1` [Compound 723, (S)—N-(1-(7-(Azetidin-1-yl)quinolin-5-yl)cyclopropyl)-2-methyl-5-((1-methylazetidin-2-yl)methoxy)benzamide], under 100 nM.
Consider `C=Cc1cc(C2(NC(=O)c3cc(OC[C@@H]4CCN4C)c(N)cc3C)CC2)c2cccnc2c1` [Compound 726, (S)-4-Amino-2-methyl-5-((1-methylazetidin-2-yl)methoxy)-N-(1-(7-vinylquinolin-5-yl)cyclopropyl)benzamide], for which the IC50 under setting [2] was under 100 nM.
In the case of `Cc1ccc(OC[C@@H]2CCN2C)cc1C(=O)NC1(c2cc(N)cc3ncccc23)CC1` [Compound 729, (S)-N-(1-(7-Aminoquinolin-5-yl)cyclopropyl)-2-methyl-5-((1-methylazetidin-2-yl)methoxy)benzamide], the IC50 under setting [2] is under 100 nM.
Take `[2H]C([2H])([2H])N1CC[C@H]1COc1ccc(C)c(C(=O)NC2(c3cc(OC)cc4ncccc34)CC2)c1` [Compound 732, (S)-N-(1-(7-Methoxyquinolin-5-yl)cyclopropyl)-2-methyl-5-((1-(methyl-d3)azetidin-2-yl)methoxy)benzamide]: the IC50 under setting [1] was under 100 nM.
On the same count and under the same terms, to `Cc1ccc(OC[C@@H]2CCN2)cc1C(=O)NC1(c2cc(-c3ncn4ccccc34)cc3ncccc23)CC1` [Compound 733, (S)-5-(Azetidin-2-ylmethoxy)-N-(1-(7-(imidazo[1,5-a]pyridin-1-yl)quinolin-5-yl)cyclopropyl)-2-methylbenzamide] belongs under 100 nM; to `C=C(C)c1cc(C2(NC(=O)c3cc(OC[C@H](C)N)ccc3C)CC2)c2cccnc2c1` [Compound 734, (S)-5-(2-Aminopropoxy)-2-methyl-N-(1-(7-(prop-1-en-2-yl)quinolin-5-yl)cyclopropyl)benzamide], under 100 nM; to `C=Cc1cc(C2(NC(=O)c3cc(OC[C@H](C)N)ccc3C)CC2)c2cccnc2c1` [Compound 735, (S)-5-(2-Aminopropoxy)-2-methyl-N-(1-(7-vinylquinolin-5-yl)cyclopropyl)benzamide], under 100 nM.
On the same count and under the same terms, under `Cc1ccc(OC[C@@H]2CCN2C)cc1C(=O)NC1(c2cc(-c3ncn4ccccc34)cc3ncccc23)CC1` [Compound 736, (S)—N-(1-(7-(Imidazo[1,5-a]pyridin-1-yl)quinolin-5-yl)cyclopropyl)-2-methyl-5-((1-methylazetidin-2-yl)methoxy)benzamide] stands under 100 nM; under `CNc1cc(C)c(C(=O)NC2(c3cc(OC)cc4ncccc34)CC2)cc1OC[C@@H]1CCN1C` [Compound 737, (S)-N-(1-(7-Methoxyquinolin-5-yl)cyclopropyl)-2-methyl-4-(methylamino)-5-((1-methylazetidin-2-yl)methoxy)benzamide], under 100 nM; under `Cc1ccc(OC[C@@H]2CCN2C)cc1C(=O)NC1(c2cc(C#N)cc3ncccc23)CC1` [Compound 738, (S)-N-(1-(7-cyanoquinolin-5-yl)cyclopropyl)-2-methyl-5-((1-methylazetidin-2-yl)methoxy)benzamide], under 100 nM.
Take `Cc1ccc(OC[C@@H]2CCN2C)cc1C(=O)NC1(c2cc(OS(=O)(=O)C(F)(F)F)cc3ncccc23)CC1` [Compound 739, (S)-5-(1-(2-Methyl-5-((1-methylazetidin-2-yl)methoxy)benzamido)cyclopropyl)quinolin-7-yl trifluoromethanesulfonate]: the IC50 under setting [1] is under 100 nM.
With `Cc1ccc(OC[C@@H]2CCN2C)cc1C(=O)NC1(c2cc(N3CCOCC3)cc3ncccc23)CC1` [Compound 740, (S)-2-Methyl-5-((1-methylazetidin-2-yl)methoxy)-N-(1-(7-morpholinoquinolin-5-yl)cyclopropyl)benzamide], under setting [1], the IC50 was under 100 nM.
Take `CCCNc1cc(C2(NC(=O)c3cc(OC[C@@H]4CCN4C)ccc3C)CC2)c2cccnc2c1` [Compound 743, (S)-2-Methyl-5-((1-methylazetidin-2-yl)methoxy)-N-(1-(7-(propylamino)quinolin-5-yl)cyclopropyl)benzamide]: the IC50 under setting [2] is under 100 nM.
The same measure, in the same setting: to `CC(=O)Nc1cc(C2(NC(=O)c3cc(OC[C@@H]4CCN4C)ccc3C)CC2)c2cccnc2c1` [Compound 744, (S)-N-(1-(7-Acetamidoquinolin-5-yl)cyclopropyl)-2-methyl-5-((1-methylazetidin-2-yl)methoxy)benzamide] belongs under 100 nM.
For the compound `C=Cc1cc(C2(NC(=O)c3cc(OC[C@@H]4CCN4C)c(NC)cc3C)CC2)c2cccnc2c1` [Compound 745, (S)-2-Methyl-4-(methylamino)-5-((1-methylazetidin-2-yl)methoxy)-N-(1-(7-vinylquinolin-5-yl)cyclopropyl)benzamide], the half-maximal inhibitory concentration (IC50) under setting [1] was under 100 nM.
